The results in this text go back to patent publication US20080318938A1, “METHODS FOR TREATING ABERRANT CELL PROLIFERATION DISORDERS” (priority 2007, published 2008).

Series [1] is described as follows: TA4-1A in plasma, brain and tumor of HCT116 tumor-bearing mice. Format: in vivo. As to conditions: for Share of the therapeutic agent in brain / Share of the therapeutic agent in plasma / Share of the therapeutic agent in tumor: mice, 12.5 mg/kg IV daily 14 days, wash-out, last dose day 19. The text has this: In vivo experiment protocols were approved by the Animal Use and Care Committee. Female NCr nu/nu mice were purchased from Taconic Farms and group housed in a ventilated rack system on a 12/12 light cycle. All housing materials and water were autoclaved prior to use. The mice were fed ad libitum with gamma-irradiated laboratory chow and acidified water. Animals were handled under laminar-flow hoods. Animals were inoculated subcutaneously in the right flank with 5×10̂6 HCT116 cells. Tumors were monitored twice weekly and then daily as they approached the appropriate size for study. On Day 1 of the study, the animals were randomized into n=3 treatment groups with group average tumor sizes of 109 mm^3.
(§1) where w=width and 1=length in mm of the tumor. Tumor weight was estimated with the assumption that 1 mg is equivalent to 1 mm^3 of tumor volume. Mice were daily dosed with compound TA4-1A at 12.5 mg/kg (IV) during 14 days. A wash-out period ensued for four days with no dosing, and the last dose was administered after the wash-out period (day 19) at 12.5 mg/kg. At one, two and twenty-four hour time points plasma, brain and tumor samples were collected from terminal mice and frozen. It was determined that the tumor contained 35%, plasma contained 64% and brain contained 1% of the therapeutic agent after the one hour time point, and the tumor contained 74%, plasma contained 24% and brain contained 2% of the therapeutic agent after the two hour time point. At the 24 hour time point, tumor contained 17%, plasma contained 49% and brain contained 34% of the therapeutic agent. After an eight hour exposure to the agent in female and male rats, approximately 3-4% of the agent was available in the brain as compared to the amount in plasma. […] Examples of cell lines and particular brain cancers are described herein.

The nature of series [2]: TA4-1A in brain compared to plasma in rats. To be noted: both sexes, rat, female and male rats, eight hour exposure, read-out: Agent available in the brain as compared to the amount in plasma. Format: in vivo. The method, then: as §1

Molecules are shown by their SMILES.

For `CC(=O)N1CCN(c2nc3c(cc2F)c(=O)c(C(=O)NCCN2CCCC2)c2n(C)c4ccccc4n32)CC1` [TA4-1A], the Blood-brain barrier permeation result in series [1] (mice and rats, conclusion from brain levels) was “can permeate the blood-brain barrier to some extent”. In series [1] (24 hour), the “Share of the therapeutic agent in brain” value was 34%, the “Share of the therapeutic agent in plasma” value was determined as 49% and the “Share of the therapeutic agent in tumor” value is listed as 17%. In addition, in series [1] (one hour), the “Share of the therapeutic agent in brain” value was 1%, the “Share of the therapeutic agent in plasma” value was 64% and the “Share of the therapeutic agent in tumor” value amounted to 35%. In series [1] (two hour), the “Share of the therapeutic agent in brain” value is given as 2%, the “Share of the therapeutic agent in plasma” value turned out to be 24% and the “Share of the therapeutic agent in tumor” value amounted to 74%. The Kp at 8 h in series [2] was in the range of 0.03 to 0.04.
